Measurements taken from patent US5703056A, “Non-invasive imaging of gene transfer” (priority 1995, dated 1997).
Like-named read-outs stand apart in the source and are kept apart here.

Legend:
[1] = cited from earlier work; for lipophilicity and blood-brain barrier permeability compared with FIAU: compared with FIAU (FAIU [sic]), Iwashina et al. 1988
[2] = physchem; assay type: physicochemical; details: octanol/water
Source text: It is known that brain capillary permeability for many compounds is related to their octanol/water partition coefficient (P) and molecular weight. [[…]. Med. […] [Dischino, […]., and […]. Nucl. […] […]. Drug transfer across the blood brain barrier. In: Topics in Pharmaceutical Sciences. Ed.: Breimer, D. D., and […]. […] […]., and Rapoport, S. I. In: Handbook of Physiology. The Cardiovascular System. Microcirculation. Bethesda, Md.: Am. Physiol. Soc., sect. 2, Vol. IV, […]. 969-1000, 1984; […]. In: Implications of Blood-Brain Barrier and Its Manipulation. Basic Science Aspects. Ed. by Neuwelt, E., New York: Plenum, Vol. 1, […]. 132-55, 1988] […] [Xu, […]., Knaus, E. E., and Wiebe, L. I. In: Advances in Radiopharmacology. […]., Snowdon, G. M., Boniface, G. R., Univ. of Wollongong Printing Service, Wollongong, Australia, pp. 283-298, 1990] […] […]).

[3] = Calculated permeability surface area product (PS) of the cerebral capillaries; design: unit not given here; details: for PS*: calculated from measured log P and MW: log(PS)=5.2+log(P·Dm); for PS+: calculated from published log P and MW: log(PS)=5.2+log(P·Dm)
Source text: Passage of the nucleosides across the blood brain barrier (BBB) is an important factor to consider in the design of radiolabelled 2'-fluoro-nucleoside analogues for imaging HSV1-TK expression in the brain. […] It is known that brain capillary permeability for many compounds is related to their octanol/water partition coefficient (P) and molecular weight. [Levin, V. N. J. Med. Chem., 23: 682-4, 1980] Several authors have described a relationship between the brain capillary permeability and log P or log P·Dm, where Dm is a measure of diffusibility. […] [Dischino, D. D., Welch, M. J., Kilbourn, M. N., and Raichle, M. E., J. Nucl. Med., 24: 1030-8, 1983] […] Fenstermacher, J. D. Drug transfer across the blood brain barrier. In: Topics in Pharmaceutical Sciences. Ed.: Breimer, D. D., and Speiser, P. Amsterdam: Elsevier, pp. 143-54, 1983; Fenstermacher, J. D., and Rapoport, S. I. In: Handbook of Physiology. The Cardiovascular System. Microcirculation. Bethesda, Md.: Am. Physiol. Soc., sect. 2, Vol. IV, pt. 2, chapt. 21, p. 969-1000, 1984; Fenstermacher, J. D. In: Implications of Blood-Brain Barrier and Its Manipulation. Basic Science Aspects. Ed. by Neuwelt, E., New York: Plenum, Vol. 1, Chapt. 6, pp. 132-55, 1988]

[4] = target: T1, HSV1-TK (Human alphaherpesvirus 1 strain 17, UniProt P0DTH5); test: Accumulation of radiolabelled marker substrates in RG2TK+ transduced and RG2 wild-type cells, normalized to TdR; assay type: cell-based, herpes simplex virus
Method: Source of radiolabelled "marker substrates". […] No carrier-added 5-[^123 I]-deoxyuridine (IUdR) was prepared by reacting 2-deoxyuridine (UdR) with carrier-free ^123 I-labelled sodium iodide in an iodogen coated reaction vial.
Comparison of "marker substrates" for identifying HSV1-tk gene expression in tissue culture. […] Each of these substrates were developed for or used as an anti-viral agent; they are phosphorylated by HSV1-TK and can be radiolabelled for noninvasive imaging.
Wild-type (nontransduced) RG2 cells were studied as a reference control. […] The cells were dislodged from the Petri dishes with a soft scraper, poured into 15 ml conical tubes, centrifuged and the medium aspirated. The tubes were cut to facilitate removing cells; they were blotted, placed in pre-weighed vials, weighed and prepared for counting. Samples were assayed for ^3 H- and ^14 C-radioactivity using a Packard B1600 TriCarb beta spectrometer using dual-channel and external standard splash and quench correction techniques. The medium was also counted before and following incubation. The data was expressed as a harvested cell-to-medium concentration ratio (dpm/g cells.div.dpm/ml medium).
(§1) Data analysis. […] These two related measures are useful to evaluate the intensity of the images (e.g., high "sensitivity") and the ability to differentiate between HSV1-TK and endogenous-TK in the images (e.g., high "selectivity"). The "selectivity" measure is not interpreted as a relative sensitivity (i.e., a value of 1 indicating equal sensitivity) of the substrate to HSV1-TK vs. endogenous-TK. […] They are intended for the direct comparison of substrates only.

[5] = system: RG2TK+ and RG2 tumors; test: Tissue sampling of FIAU- and IUdR-derived radioactivity in i.c. and s.c. RG2TK+ and RG2 tumors; assay type: in vivo, rat; details: 24 h; for Sensitivity* (uptake in RG2TK+ tumor - uptake in RG2 tumor)/(HSV1TK mRNA/S28 RNA IOD in RG2TK+ cells): percent dose per gram
Method: Animal preparation and tumor inoculation Two male Fisher 344 rats weighing 250±20 g were anesthetized with a gas mixture consisting of 2% Isoflurane, 70% nitrous oxide and 30% oxygen. A 2% lidocaine gel was applied to the ears and the head was fixed with a stereotaxic device. After midline scalp incision, a burr hole was made through the skull 1 mm posterior and 3 mm lateral to the bregma. The tumor cell suspensions were aspirated into a 50 μl gas tight Hamilton syringe (Ga. 25) and attached to a stereotaxic device. The syringe needle was then inserted 6 mm deep into the caudate nucleus and the cell suspension (10^5 cells in 10 μl) was slowly injected over 2 minutes. RG2TK+ cells were injected into the left hemisphere, and RG2 cells were injected into the right hemisphere. Bone wax was applied to cover the skull defect and the scalp was closed with 4.0 silk suture. Subcutaneous inoculations (10^6 cells in 50 μl) were also performed (RG2TK+ cells into the left flank and RG2 cells into the right flank). After the procedure, the animals were marked and placed in standard cages with water and Rodent LabChow #5001 (Purina Mills, Inc.) ad libitum. Comparison of different "marker substrates" for identifying HSV1-TK expression in animals After 10 days of tumor growth, both animals received i.v. injections of [^123 I]-IUdR (400 uCi) and [^14 C]-FIAU (10 uCi). Radioactivity was allowed to clear from the body over 24 hours to reduce tissue background activity, predominantly due to radiolabelled iodide, the major metabolite of [^123 I]-IUdR. [Tjuvajev, J. G., Muraki, A., Ginos, J., Berk, J., Koutcher, J., Ballon, D., Beattie, B., Finn, R., and Biasberg, R., J. Nucl. Med., 34: 1152-62, 1993; Tjuvajev, J. G., Macapinlac, H. A., Daghighian, F., Scott, A. M., ginos, J. Z., Finn, R. D., Kothari, P., Desai, R., Zhang, Z., Beattie, B., Graham, M., Larson, S., and Blasberg, R. G., J. Nucl. Med., 35: 1407-17, 1994] The rats were killed at 24 hours under anesthesia; samples of tumor and adjacent tissue were disected and weighed, blood and plasma were obtained, and radioactivity was measured. Decay corrected ^123 I-radioactivity was assayed in a Packard AutoGamma 5550 Spectrometer; samples were stored in a refrigerator for 1 week to allow for ^123 I decay (>12 half lives) and ^14 C-radioactivity was measured in a Packard B1600 TriCarb beta spectrometer using external standard quench correction. Sample radioactivity was expressed as a percent of administered dose per gram of tissue of per unit volume of fluid.

[6] = target: T1, HSV1-TK; test: Single 120 minute paired accumulation of FIAU and IUdR by RG2TK+ and RG2 cells; assay type: cell-based, herpes simplex virus; details: Data from FIG. 6A
Method: The processing of cells and incubation medium was the same as that described above. A portion of the harvested cells was also processed for acid-insoluble (10% TCA) radioactivity. Decay corrected ^123 I-radioactivity was measured in a Packard AutoGamma 5550 Spectrometer. Samples were stored for 1 week to allow for ^123 I decay (12 half lives), and recounted afterwards in the Packard B1600 TriCarb beta spectrometer to determine ^3 H- and ^14 C-radioactivity.
All radioactivity measurements were expressed as a percent of administered dose per gram of tissue or per unit volume of fluid as described above.
as §1

[7] = log P values published by Xu, et al.

T1 sequence (P0DTH5 whole entry): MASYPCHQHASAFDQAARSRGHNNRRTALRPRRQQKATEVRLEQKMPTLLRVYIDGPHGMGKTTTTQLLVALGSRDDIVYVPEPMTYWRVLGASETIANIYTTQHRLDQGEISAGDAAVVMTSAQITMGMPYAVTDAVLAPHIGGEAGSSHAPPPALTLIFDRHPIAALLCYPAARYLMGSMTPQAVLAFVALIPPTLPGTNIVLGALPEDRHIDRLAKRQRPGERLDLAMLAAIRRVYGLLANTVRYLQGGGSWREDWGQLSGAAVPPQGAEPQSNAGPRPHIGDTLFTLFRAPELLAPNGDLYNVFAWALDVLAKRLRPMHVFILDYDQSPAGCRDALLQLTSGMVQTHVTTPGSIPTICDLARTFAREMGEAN

Compound	logP [2]	PS* [3]	PS+ [3]	also measured
CC(C)(N)C(=O)O [AIB]	-2.48	–	0.00052	–
O=C(O)CN(CCN(CC(=O)O)CC(=O)O)CCN(CC(=O)O)CC(=O)O [DTPA]	-3.89	–	0.00009	–
CCc1cn([C@@H]2O[C@H](CO)[C@@H](O)[C@H]2F)c(=O)[nH]c1=O [FERU, 5-ethyl-2'-fluoro-1-β-D-ribofuranosyl-uracil]	–	–	–	lipophilicity and blood-brain barrier permeability compared with FIAU [1]: higher lipophilicity and better permeability through the blood-brain barrier
O=c1[nH]c(=O)n([C@@H]2O[C@H](CO)[C@@H](O)[C@@H]2F)cc1C=CI [FIVAU, 2'-fluoro-5-iodovinyl-1-β-D-arabinofuranosyl-uracil]	–	–	–	lipophilicity and blood-brain barrier permeability compared with FIAU [1]: higher lipophilicity and better permeability through the blood-brain barrier
O=c1[nH]c(=O)n([C@H]2C[C@H](O)[C@@H](CO)O2)cc1I [IUdR, 5-iodo-2'-deoxy-uridine]	-0.089	0.11	0.14	Log P+ [1, 7]: -0.76; Selectivity+ Sensitivity*/(substrate/TdR) for RG2 ([4]; Data from FIG. 5): 0.006; Sensitivity* Δ(substrate/TdR)/Δ(HSV1TK mRNA/S28 RNA IOD) ([4]; Data from FIG. 5): 0.0029; accumulation in bulk RG2TK+ cells relative to wild-type RG2 cells ([4]; normalized to TdR, FIGS. 4 and 5B): 1.2 fold; Selectivity+ Sensitivity*/(uptake in RG2 tumor) ([5]; RG2TK+/RG2 i.c. tumors): 0.009; Sensitivity* (uptake in RG2TK+ tumor - uptake in RG2 tumor)/(HSV1TK mRNA/S28 RNA IOD in RG2TK+ cells) ([5]; RG2TK+/RG2 i.c. tumors): 0.0001; Selectivity+ Sensitivity*/(uptake in RG2 tumor) ([5]; RG2TK+/RG2 s.c. tumors): 0.020; Sensitivity* (uptake in RG2TK+ tumor - uptake in RG2 tumor)/(HSV1TK mRNA/S28 RNA IOD in RG2TK+ cells) ([5]; RG2TK+/RG2 s.c. tumors): 0.0007; Selectivity+ Sensitivity*/(substrate/TdR) for RG2 [6]: 0.002; Sensitivity* Δ(substrate/TdR)/Δ(HSV1TK mRNA/S28 RNA IOD) [6]: 0.0011
Cc1cn([C@H]2C[C@H](O)[C@@H](CO)O2)c(=O)[nH]c1=O [TdR, thymidine]	-0.8	–	–	Log P+ ([1]; octanol/water): -1.12

Continued, in another order:

logP [2]	PS* [3]	PS+ [3]	Compound	also measured
-1.52	0.03	0.03	O=c1[nH]c(=O)n([C@H]2C[C@H](O)[C@@H](CO)O2)cc1F [5-FUdR]	Log P+ ([1]; octanol/water): -1.51
–	10.29	–	O=c1[nH]c(=O)n([C@H]2C[C@H](O)[C@@H](CO)O2)cc1/C=C/I [5-IVdU]	Log P* [2]: 1.10
–	–	0.31	CCc1cn([C@@H]2O[C@H](CO)[C@@H](O)[C@@H]2F)c(=O)[nH]c1=O [FEAU, 2'-fluoro-5-ethyl-1-β-D-arabinofuranosyl-uracil]	lipophilicity and blood-brain barrier permeability compared with FIAU [1]: higher lipophilicity and better permeability through the blood-brain barrier
-1.09	0.08	–	O=c1[nH]c(=O)n([C@@H]2O[C@H](CO)[C@@H](O)[C@@H]2F)cc1F [FFAU, 2'-fluoro-5-fluoro-1-β-D-arabinofuranosyl-uracil]	–
–	0.02	–	O=c1[nH]c(=O)n([C@@H]2O[C@H](CO)[C@@H](O)[C@H]2F)cc1F [FFRU]	–
–	0.45	–	O=c1[nH]c(=O)n([C@@H]2O[C@H](CO)[C@@H](O)[C@H]2F)cc1I [FIRU, 2'-fluoro-5-iodo-1-β-D-ribofuranosyl-uracil]	–
1.21	13.03	–	O=c1[nH]c(=O)n([C@@H]2O[C@H](CO)[C@@H](O)[C@H]2F)cc1C=CI [FIVRU, 2'-fluoro-5-iodovinyl-1-β-D-ribofuranosyl-uracil]	lipophilicity and blood-brain barrier permeability compared with FIAU [1]: higher lipophilicity and better permeability through the blood-brain barrier
-0.131	0.05	0.03	O=c1ccn([C@H]2C[C@H](O)[C@@H](CO)O2)c(=O)[nH]1 [UdR, 2-deoxyuridine]	Log P+ [1, 7]: -1.48
